US20080287426A1, “Method of Inducing Resistance to Harmful Fungi” (priority 2005, published 2008)

System: S. tritici
Assay: S. tritici infection of wheat seedlings after spraying first leaves (induced resistance)
Format: in vivo, Septoria tritici
Experimental: Wheat seedlings at the 2 leaf stage were used in the study. Plants were grown singly in pots and were split into two batches. First leaves were sprayed with pyraclostrobin at the recommended rate (first leaves of controls were sprayed with distilled water) and the plants to be used for disease assessment were inoculated with S. tritici once leaves had dried. Both first and second leaves were inoculated by spraying with a spore suspension of 1×10^5 spores/ml of distilled water containing a drop of Tween 20. Immediately after inoculation, pots were placed in water-saturated trays and covered with clear polyethene bags for 48 h. Thereafter plants were grown at 18° C. with 12 h/12 h light/dark alternation. Infection intensity was assessed 18 days after inoculation by estimating the % leaf area covered by symptoms.

pyraclostrobin
reduced infection on first leaves (after 18 days, compared to non treated controls): 65%
reduced infection on second leaves (after 18 days, compared to non treated controls, only first leaves sprayed): 61%
Infection (% leaf area showing symptoms) First leaf (wheat seedlings, first leaves sprayed at the recommended rate, 18 days after inoculation, means ±SE of 10 replicates, pyraclostrobin-resistant isolate): 17 ± 2.3 % leaf area showing symptoms
reduces S. tritici infection of first and second leaves (wheat seedlings, isolate resistant to pyraclostrobin): > 60%
Infection (% leaf area showing symptoms) Second leaf (wheat seedlings, only first leaves sprayed at the recommended rate, 18 days after inoculation, means ±SE of 10 replicates, pyraclostrobin-resistant isolate): 16 ± 1.4 % leaf area showing symptoms
